From patent publication US6632829B2, “Sulfonamides and derivatives thereof that modulate the activity of endothelin” (Texas Biotechnology Corp., priority 1996, dated 2003)

Columns and labels:
human ETA receptors = target: T1, human ETA receptors (Homo sapiens, UniProt P25101); assay: Endothelin binding inhibition, Binding Test #1: competition with 125I-ET-1 for ETA receptors on TE 671 cell membranes; settings: incubation at 24° C. (values marked †)
T1 construct: endogenous in cells; host or cells: TE 671 cells (ATCC HTB 139), membrane preparation
T1 sequence (P25101 21-427): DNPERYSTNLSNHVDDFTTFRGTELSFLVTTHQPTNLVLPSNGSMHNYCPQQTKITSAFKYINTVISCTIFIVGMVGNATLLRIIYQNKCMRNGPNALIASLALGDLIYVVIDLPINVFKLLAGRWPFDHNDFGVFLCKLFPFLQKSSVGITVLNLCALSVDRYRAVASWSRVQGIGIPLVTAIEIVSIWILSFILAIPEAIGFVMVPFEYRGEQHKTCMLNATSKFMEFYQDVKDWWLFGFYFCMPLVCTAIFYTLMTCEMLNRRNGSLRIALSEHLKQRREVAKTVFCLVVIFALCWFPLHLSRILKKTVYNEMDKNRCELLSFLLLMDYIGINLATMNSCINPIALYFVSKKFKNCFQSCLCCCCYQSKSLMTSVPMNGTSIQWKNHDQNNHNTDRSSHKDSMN

human ETB receptor = target: T2, human ETB receptor (Homo sapiens, UniProt P24530); assay: Endothelin binding inhibition, Binding Test #2: competition with 125I-ET-1 for ETB receptors on transfected COS7 cell membranes; settings: for IC50: incubation at 24° C. (values marked †); for inhibition at 100 µM: read-out: ETB % inhibition @ 100 μM, @ 100 μM, incubation at 24° C.
T2 construct: expressed in transfected cells; host or cells: COS7 cells
T2 sequence (P24530 27-442): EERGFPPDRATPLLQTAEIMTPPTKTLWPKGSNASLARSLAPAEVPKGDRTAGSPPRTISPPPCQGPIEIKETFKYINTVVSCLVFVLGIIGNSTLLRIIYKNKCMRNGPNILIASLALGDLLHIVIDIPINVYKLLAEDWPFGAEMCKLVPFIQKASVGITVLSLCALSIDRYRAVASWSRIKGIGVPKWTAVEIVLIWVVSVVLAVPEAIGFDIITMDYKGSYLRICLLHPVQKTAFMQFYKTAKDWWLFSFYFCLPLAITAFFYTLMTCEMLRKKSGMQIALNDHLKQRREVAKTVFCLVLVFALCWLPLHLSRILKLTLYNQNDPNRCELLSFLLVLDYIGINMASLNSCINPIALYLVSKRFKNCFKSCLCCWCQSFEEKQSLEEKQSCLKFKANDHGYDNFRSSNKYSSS
Method in brief: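 Membranes from COS7 cells transfected with human ETB receptor, prepared in HEPES pH 7.4 with aprotinin, MnCl2/DNase treatment at 37° C for 30 min. Test compounds compete with 125I-labeled ET-1 for receptor binding; membrane used at 1 μg/50 μL binding buffer.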

Papp = format: in vitro ADME; settings: not told
[1] = Oral half-life and peak plasma levels; format: in vivo; settings: for POt½ in Rat: oral; for Peak Plasma Levels: rat, in vivo
Text: As used herein, bioavailability refers to the rate and extent of absorption. Methods for determining bioavailability are well known to those of skill in the art. For example, bioavailability of any of the compounds described herein can be determined empirically by administration of the compound to an animal, followed by taking blood samples over time and measuring the blood concentration of the compound. In vivo half life (t1/2) is defined as the time it takes for the concentration of the compound in the blood to be reduced by one-half. Estimations of the area under the curve for intravenous administration can be used to estimate the area under the curve for oral administration, ylelding bioavailability data. See, e.g., Milo Gibal (1991) Biopharmaceutics and Pharmacology, 4th edition (Lea and Sediger).
Table 2 lists oral half-life, bioavailability, and in vivo activity of selected exemplary compounds. The in vivo activity was measured in a pulmonary hypertension model and is a measure of the activity of the compounds at selected dosages.

[2] = test system: Pulmonary Hypertension model; assay: Pulmonary Hypertension model; format: in vivo, rat; design: key: ++: effective at 5 mg/kg; −: no effect at 5 mg/kg; +: effective at 15 mg/kg
Method: As used herein, efficacy refers to the maximal effect that can be produced by a compound. Efficacy can be determined by methods known to those of skill in the art. For example, it can be determined by the properties of the compound and its receptor-effector system and is reflected in the plateau of the concentration-effect curve. In vivo efficacy refers to efficacy which is determined in an animal model. For example, in vivo efficacy of the compounds described herein can be determined by hypoxia-induced pulmonary hypertension in rat. See, e.g., DiCarlo et al. (1995) Am. J. Physiol. 269:[…]-[…]. Table 2 lists oral half-life, bioavailability, and in vivo activity of selected exemplary compounds. The in vivo activity was measured in a pulmonary hypertension model and is a measure of the activity of the compounds at selected dosages.

Row | SMILES | IC50 (human ETA receptors) [µM] | IC50 (human ETB receptor) [µM] | Papp (Papp) [×10⁻⁶ cm/s] | POt½ in Rat [1] [h] | Peak Plasma Levels [1] [µg/mL] | in vivo Efficacy [2] | inhibition at 100 µM (human ETB receptor) [%]
1 | COc1cc(C#N)c(NC(=O)c2sccc2S(=O)(=O)Nc2onc(C)c2Cl)c(OC)c1OC [N-(4-chloro-3-methyl-5-isoxazolyl)-2-[(2,3,4-trimethoxy-6-cyano)phenylaminocarbonyl]thiophene-3-sulfonamide] | 0.00024 | 7 | 0.58 |  |  |  | 
2 | Cc1cc(C)c(NC(=O)c2sccc2S(=O)(=O)Nc2onc(C)c2Cl)c(C)c1CC(=O)O [N-(4-chloro-3-methyl-5-isoxazolyl)-2-(3-carboxymethyl-2,4,6-trimethylphenylaminocarbonyl)thiophene-3-sulfonamide] | 0.00177 | 106 | 1.1 |  |  |  | 
3 | Cc1cc(C)c(NC(=O)c2sccc2S(=O)(=O)Nc2onc(C)c2C)c(C)c1CC#N [N-(3,4-dimethyl-5-isoxazolyl)-2-(3-cyanomethyl-2,4,6-trimethylphenylaminocarbonyl)thiophene-3-sulfonamide] | 0.00156 | 22.8 |  | 1.8 | 10.9 |  | 
4 | Cc1cc(C)c(NS(C)(=O)=O)c(C)c1NC(=O)c1sccc1S(=O)(=O)Nc1onc(C)c1Cl [N-(4-chloro-3-methyl-5-isoxazolyl)-2-(3-methanesulfonylamino-2,4,6-trimethylphenylaminocarbonyl)thiophene-3-sulfonamide] | 0.00162 | 67.6 |  | 5.9 | 2.6 |  | 
5 | Cc1cc(C)c(NC(=O)c2sccc2S(=O)(=O)Nc2noc(C)c2Cl)c(C)c1CC#N [N-(4-chloro-5-methyl-3-isoxazolyl)-2-(3-cyanomethyl-2,4,6-trimethylphenylaminocarbonyl)thiophene-3-sulfonamide] | 0.00088 | 7.54 |  | 25.6 | 13 | − | 
6 | Cc1cc2c(cc1CC(=O)c1sccc1S(=O)(=O)Nc1onc(C)c1Cl)OCO2 [N-(4-chloro-3-methyl-5-isoxazolyl)-2-[2-methyl-4,5-(methylenedioxy)phenylacetyl]thiophene-3-sulfonamide] | 0.0146 | 52.8 | 2.32 | 4.1 | 173 | ++ | 
7 | Cc1cc(C)c(NC(=O)c2sccc2S(=O)(=O)Nc2onc(C)c2Cl)c(C)c1CO [N-(4-chloro-3-methyl-5-isoxazolyl)-2-(3-hydroxymethyl-2,4,6-trimethylphenylaminocarbonyl)thiophene-3-sulfonamide] | 0.00067 | 74.2 | 1.56 | 1.5 | 3 |  | 
8 | Cc1cc(C)c(NC(=O)c2sccc2S(=O)(=O)Nc2onc(C)c2Cl)c(C)c1C#N [N-(4-chloro-3-methyl-5-isoxazolyl)-2-(3-cyano-2,4,6-trimethylphenylaminocarbonyl)thiophene-3-sulfonamide] | 0.00152 | 57.2 |  | 3.9 | 20 | ++ | 
9 | Cc1cc(C)c(S(N)(=O)=O)c(C)c1NC(=O)c1sccc1S(=O)(=O)Nc1onc(C)c1Cl [N-(4-chloro-3-methyl-5-isoxazolyl)-2-(3-sulfamoyl-2,4,6-trimethylphenylaminocarbonyl)thiophene-3-sulfonamide] | 0.00092 | 25.5 |  | 3.4 | 2.8 |  | 
10 | CC(=O)OCc1c(C)cc(C)c(NC(=O)c2sccc2S(=O)(=O)Nc2onc(C)c2Cl)c1C [N-(4-chloro-3-methyl-5-isoxazolyl)-2-(3-acetoxymethyl-2,4,6-trimethylphenylaminocarbonyl)thiophene-3-sulfonamide] | 0.00086 | 730 | 1.46 |  |  |  | 
11 | COC(=O)Cc1c(C)cc(C)c(NC(=O)c2sccc2S(=O)(=O)Nc2onc(C)c2Cl)c1C [N-(4-chloro-3-methyl-5-isoxazolyl)-2-(3-methoxycarbonylmethyl-2,4,6-trimethylphenylaminocarbonyl)thiophene-3-sulfonamide] | 0.001 | 114 | 1.69 |  |  |  | 
12 | Cc1cc2c(cc1NC(=O)c1sccc1S(=O)(=O)Nc1onc(C)c1Cl)OCO2 [N-(4-chloro-3-methyl-5-isoxazolyl)-2-[2-methyl-4,5-(methylenedioxy)phenylaminocarbonyl]thiophene-3-sulfonamide] | 0.003 | 355 |  |  |  |  | 
13 | Cc1cc2c(cc1CCc1ccsc1S(=O)(=O)Nc1onc(C)c1Br)OCO2 [N-(4-bromo-3-methyl-5-isoxazolyl)-3-[2-methyl-4,5-(methylenedioxy)phenethyl]thiophene-2-sulfonamide] | ~0.1 | ~5 |  |  |  |  | 
14 | Cc1ccc(OC(=O)c2sccc2S(=O)(=O)Nc2onc(C)c2C)c(C)c1 [N-(3,4-dimethyl-5-isoxazolyl)-2-[(2,4-dimethylphenoxy)carbonyl]thiophene-3-sulfonamide] | 0.274 |  |  |  |  |  | 21
15 | Cc1noc(NS(=O)(=O)c2ccsc2C(=O)Nc2ccccc2O)c1Br [N-(4-bromo-3-methyl-5-isoxazolyl)-2-[(2-hydroxyphenyl)aminocarbonyl]thiophene-3-sulfonamide] | 0.013 | 38 |  |  |  |  | 
16 | COc1cccc(OC(=O)c2sccc2S(=O)(=O)Nc2onc(C)c2Br)c1 [N-(4-bromo-3-methyl-5-isoxazolyl)-2-[(3-methoxylphenoxy)carbonyl]thiophene-3-sulfonamide] | 0.79 | 90 |  |  |  |  | 
17 | Cc1noc(NS(=O)(=O)c2ccc(C(=O)Nc3ccccc3)s2)c1Cl [N-(4-chloro-3-methyl-5-isoxazolyl)-5-(phenylaminocarbonyl)thiophene-2-sulfonamide] | 28.1 | 60.6 |  |  |  |  | 
18 | COc1cc(NC(=O)c2sccc2S(=O)(=O)Nc2onc(C)c2Cl)c(C(N)=O)cc1OC [N-(4-chloro-3-methyl-5-isoxazolyl)-2-(2-carboxamido-4,5-dimethoxyphenylaminocarbonyl)thiophene-3-sulfonamide] | 0.011 | 61 |  |  |  |  | 
19 | Cc1cc(C)c(NC(=O)c2sccc2S(=O)(=O)Nc2onc(C)c2Cl)c(C)c1CC#N [N-(4-chloro-3-methyl-5-isoxazolyl)-2-(3-cyanomethyl-2,4,6-trimethylphenylaminocarbonyl)thiophene-3-sulfonamide] | 0.00118 | 38.8 | 1.78 | 3.4 | 40.2 | ++ | 
20 | Cc1noc(NS(=O)(=O)c2ccsc2C(=O)Oc2ccccc2)c1Br [N-(4-bromo-3-methyl-5-isoxazolyl)-2-(phenoxycarbonyl)thiophene-3-sulfonamide] | 2.71 |  |  |  |  |  | 20
21 | COc1cccc(CC(=O)c2sccc2S(=O)(=O)Nc2onc(C)c2Br)c1 [N-(4-bromo-3-methyl-5-isoxazolyl)-2-[(3-methoxyphenyl)acetyl]thiophene-3-sulfonamide] | 0.03 | 19.1 |  |  |  |  | 
